US9334256B2, “Agents and methods for treating ischemic and other diseases” (NoNO INC., priority 2011, dated 2016)

Key:
TRPM7 ion channel = molecular target: T1, TRPM7 ion channel (Mus musculus, UniProt Q923J1); assay: Whole-cell patch clamp of TRPM7 currents in HEK293 cells; type: cell-based; conditions: value shown = concentration at which the compound significantly inhibits the ion channel
T1 construct: expressed in transfected cells; host or cells: TRPM7-tet-on HEK293 cells
Method: To further understand the structure function relationships between the TRPM7 inhibitors identified in the TRPM7-dependent HEK death assay, the activity of a subset of these inhibitors described herein were tested for their ability to inhibit TRPM7 currents in cell systems. Whole-cell patch clamp recordings were used essentially as described to test the TRPM7 inhibitors in HEK293 cells, H9c2 cardiomyocytes and cultured neurons. […] Those that provide >10% inhibition of TRPM7 channel activity in the HEK293 cell system were labeled with the concentration tested (generally 5 uM). Thus, the compounds in this table marked with such a value are able to block the activity gof the TRPM7 ion channel. FIGS. 2A-C provide an example of this for the TRPM7 inhibitor 399 (Structure 9). […] Numbers in brackets indicate the number of independent tests, and the bars represent the SEM.
Whole-cell currents were recorded using an Axopatch 1D or MultiClamp 700B amplifier and were digitized at 10 kHz and low-pass filtered at 2 kHz, at room temperature. pClamp10 software was used for data acquisition and analysis. Patch electrodes were pulled from Borosilicate glass and fire polished to a resistance of 2-4 MΩ. All drugs were administrated directly to cell bodies under recording through the fast exchange perfusion system.
The intracellular solution (ICS) contains (mM) 145 Cs-methanesulfonate, 8 NaCl, l MgCl2, 4.1 CaCl2, 10 EGTA, and 10 HEPES, 5 ATP, pH at 7.4, with 300-305 mOsm. The extracellular solution (ECS) contains (mM) 140 NaCl, 5 KCl, 2 CaCl2, 20 HEPES, and 10 glucose, pH at 7.4 and with 315-320 mOsm.
Voltage stimuli lasting 250 ms were delivered at 5-s intervals with voltage ramps ranging from −100 to +100 mV. The current values at −80 mV and +80 mV on I-V curve represent the measures of inward and outward current respectively.
Table X and FIGS. 7-51 show screening data for several additional compounds that are variants of M5, M6 or M21. The synthesis of compounds of Table X and FIGS. 7-51 is shown in Appendices A-C. The compounds shown in FIGS. 7-51 can be related to the appropriate row of Table X by the compound number shown in the figures and in the first column of Table X. The compounds in Table X other than M5, M6 and M21 themselves, are believed to be novel. The Table provides a number identifying the compound, its structurer, molecular weight and its cluster (i.e., whether the compound resembles M5, M6 or M21). The three columns relations to PI uptake describe the results of screening the compounds in the type of assay from Example 1. […] The last two columns show an effect on proliferation of Weri retinoblastoma or HeLa cervical cancer cells. Inhibition of proliferation is a measure of anti-neoplastic activity. […] If no data is shown, no test was performed.

TRPM7 = molecular target: T2, TRPM7 (Mus musculus, UniProt Q923J1); assay: PI uptake cell death assay in TRPM7-expressing HEK-293 cells (type of assay from Example 1); type: cell-based, murine
T2 construct: expressed in transfected cells; host or cells: HEK-293 tSA (HEK-293T) cells, transient transfection with Lipofectamine 2000
T2 sequence (Q923J1 whole entry): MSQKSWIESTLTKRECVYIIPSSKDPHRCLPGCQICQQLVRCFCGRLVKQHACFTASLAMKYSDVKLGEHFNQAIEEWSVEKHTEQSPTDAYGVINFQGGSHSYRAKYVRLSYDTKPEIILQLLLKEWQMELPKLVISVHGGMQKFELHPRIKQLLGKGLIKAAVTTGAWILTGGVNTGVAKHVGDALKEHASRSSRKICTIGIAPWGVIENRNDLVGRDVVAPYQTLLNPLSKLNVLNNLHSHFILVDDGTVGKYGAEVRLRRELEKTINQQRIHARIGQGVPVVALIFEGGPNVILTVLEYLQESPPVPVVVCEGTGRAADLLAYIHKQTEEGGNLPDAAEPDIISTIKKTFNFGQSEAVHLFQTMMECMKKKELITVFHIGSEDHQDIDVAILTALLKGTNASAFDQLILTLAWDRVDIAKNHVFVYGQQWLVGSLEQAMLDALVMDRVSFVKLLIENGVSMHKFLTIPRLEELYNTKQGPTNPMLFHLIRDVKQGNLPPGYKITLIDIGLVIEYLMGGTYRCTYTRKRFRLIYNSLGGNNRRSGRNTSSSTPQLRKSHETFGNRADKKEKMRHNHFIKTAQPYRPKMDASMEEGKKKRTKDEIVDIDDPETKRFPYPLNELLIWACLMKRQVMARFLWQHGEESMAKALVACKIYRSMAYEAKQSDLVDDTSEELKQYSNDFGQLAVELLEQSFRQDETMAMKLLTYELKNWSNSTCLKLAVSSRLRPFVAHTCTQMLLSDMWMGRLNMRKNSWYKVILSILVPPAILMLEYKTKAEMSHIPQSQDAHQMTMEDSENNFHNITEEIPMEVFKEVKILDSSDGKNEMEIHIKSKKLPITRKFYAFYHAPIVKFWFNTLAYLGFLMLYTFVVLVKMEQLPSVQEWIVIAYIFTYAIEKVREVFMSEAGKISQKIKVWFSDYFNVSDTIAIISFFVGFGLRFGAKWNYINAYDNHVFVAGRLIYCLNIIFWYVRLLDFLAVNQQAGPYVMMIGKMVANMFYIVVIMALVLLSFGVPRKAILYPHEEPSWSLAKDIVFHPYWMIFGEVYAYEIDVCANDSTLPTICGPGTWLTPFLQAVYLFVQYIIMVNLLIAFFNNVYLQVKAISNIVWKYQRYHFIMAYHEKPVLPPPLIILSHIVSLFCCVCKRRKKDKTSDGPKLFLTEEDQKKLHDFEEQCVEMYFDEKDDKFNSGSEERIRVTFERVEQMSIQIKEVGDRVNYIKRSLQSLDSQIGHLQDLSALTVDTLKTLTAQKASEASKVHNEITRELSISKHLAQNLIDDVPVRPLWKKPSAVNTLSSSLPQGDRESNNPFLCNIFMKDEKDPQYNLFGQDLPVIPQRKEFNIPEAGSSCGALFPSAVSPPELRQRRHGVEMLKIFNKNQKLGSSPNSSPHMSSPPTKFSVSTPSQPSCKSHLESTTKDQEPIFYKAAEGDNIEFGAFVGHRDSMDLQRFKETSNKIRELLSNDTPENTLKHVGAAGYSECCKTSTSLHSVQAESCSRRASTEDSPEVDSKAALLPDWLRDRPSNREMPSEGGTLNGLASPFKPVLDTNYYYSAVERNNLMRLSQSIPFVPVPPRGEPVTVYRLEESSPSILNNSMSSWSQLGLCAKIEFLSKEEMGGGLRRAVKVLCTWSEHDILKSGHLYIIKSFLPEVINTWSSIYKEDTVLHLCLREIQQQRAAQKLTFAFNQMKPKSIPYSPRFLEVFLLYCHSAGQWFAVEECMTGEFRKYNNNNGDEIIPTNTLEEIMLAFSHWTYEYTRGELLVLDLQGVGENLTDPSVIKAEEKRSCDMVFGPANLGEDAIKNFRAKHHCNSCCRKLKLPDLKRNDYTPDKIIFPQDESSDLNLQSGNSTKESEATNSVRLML
Excerpt: The TRPM7 channel provides a pathway for mono- and divalent cations into the cell, and is unique in that it contains a functional C-terminal α-kinase domain. […] The induction of chemical anoxia in host cells such as recombinant HEK293 cells can be used to activate TRPM7. This activation is detectable with the use measurements of cellular calcium accumulation. This is achievable with the use of a fluorescent calcium indicator. Alternatively, this activation can also be measured using radiolabelled Ca2+ (^45Ca^2+) as described previously by Sattler et al. (Sattler et al., 1998) and Aarts et al. (Aarts et al., 2003).
Hoechst 33342 was purchased as a 10 mg/mL solution in water (Molecular Probes Inc., Eugene, Oreg.). Propidium iodide (PI) was purchased as a powder and prepared by dissolving in PBS at 1 mg/mL. PI solutions were stored at 4° C. until use. Hoechst and PI were added directly to cell culture to 5 μg/mL and 10 μg/mL respectively. Cells were incubated at room temperature or at 37° C. for 10 minutes to allow for adequate uptake, and fluorescence observed using a NIKON Eclipse TE2000 inverted microscope and TE-FM Epi-Fluorescence attachment (Nikon Canada).
Untransfected cells or cells transfected with the TRPM7/pTracer or ΔPDZ/pTracer construct were plated onto 24-well plates, 24-hours post-transfection. Untransfected cells were plated at 0.75×10^6 cells/well and transfected cells at 1×10^6 cells/well. The plates were coated with poly-D-lysine to strengthen cell adhesion and to minimize cell loss during washes. Cells were loaded by incubation with 5 μM fluo-3 AM and 0.02% pluronic in HBSS at 37° C. for 30 minutes. Following loading, cells were washed with an aglycaemic HBSS containing, in mM: 20 N-methyl-D-glucamine (NMDG), 121 NaCl, 5 KCl, 10 HEPES acid, 10 HEPES-Na salt, 3 NaHCO3, 1 Na-pyruvate, and 1.8 CaCl2, pH adjusted to 7.4 with HCl. Calcium uptake, as assessed by fluo-3 fluorescence, was measured in response to 0, 5, 10, 15, 20, or 25 mM sodium cyanide (NaCN; Mallinckrodt Baker Inc., Phillipsburg, N.J.) dissolved in aglycaemic HBSS. A 250 mM NaCN stock was prepared in water and stored at room temperature for up to 2 weeks. Measurements of fluo-3 fluorescence were taken over a 2 hour period at 10 minutes intervals at room temperature (22-25° C.). Calcium uptake assays were performed 48 hours post-transfection.
Cell death, as assessed by PI uptake, was examined at the end of the 2 hour calcium uptake assay. Cells were stained with 10 μg/mL PI and PI fluorescence measured using the Fluoroskan microplate reader (λ excitation=590 nm, λ emission=630 nm) and accompanying Ascent software (Thermo Electron Corp.). To obtain a reading of maximal fluorescence (Fmax), 0.5% Triton X-100 was added to each well and allowed to incubate for 20 minutes. Cell death assays were performed 48 hours post-transfection.
Data was entered into Excel (Microsoft, Seattle, Wash.) or SigmaPlot (SPSS Inc., Chicago, Ill.) for analysis. Pooled data are presented as the mean of at least 3 separate experiments±sem. Calcium uptake is expressed as a fraction of baseline uptake: ΔFt=(Ft−Fo)/Fo where Ft is the fluorescence at time t, and Fo is the fluorescence at baseline. Cell death is expressed as a percentage of total cell death: cell death (%)=Ft/Fmax×100 where Ft is the fluorescence at time t and Fmax is the maximal fluorescence obtained by permeabilization with Triton X-100. Concentration-response curves were fit by nonlinear regression with a 4 parameter logistic curve represented by the following equation: y=min+{(max−min)/[1+(x/EC50)n]} where y is the response at concentration x, min is the minimal response, max is the maximal response, EC50 is the concentration required for half-maximal response, and n is the Hill slope. Statistical analysis of data was carried out with a two-tailed Student's t test, or a one-way analysis of variance (ANOVA) followed by post hoc pairwise multiple comparisons testing using the Holm-Sidak method, where appropriate. […]

[1] = Table X, the lower the number, the more potent in protecting against cell death
[2] = Table X, the lower the number, the more potent
[3] = Table Y, commercially available compounds

T1 sequence (Q923J1 whole entry): as above

| Compound | TRPM7 current (TRPM7 ion channel) | Normalized ratio of PI uptake (5 μM) (TRPM7; [1]) | Normalized ratio of PI uptake (10 μM) (TRPM7; [2]) | IC50 (TRPM7; Table X) [µM] | Normalized ratio of PI uptake (5 μM) (TRPM7; [3]) | Normalized ratio of PI uptake (10 μM) (TRPM7; [3]) | IC50 (TRPM7; [3]) [µM] |
| --- | --- | --- | --- | --- | --- | --- | --- |
| O=C(NC1CCCc2ccccc21)c1sc2ccccc2c1Cl (stereo not drawn) [Compound 97] | 5 μM (Those that provide >10% inhibition of TRPM7 channel activity in the HEK293 cell system were labeled with the concentration tested (generally 5 uM)) | 0 | 0.084 | 1.24 | – | – | – |
| COc1cccc2c1CCNC2c1sc2ccccc2c1Cl (stereo not drawn) [Compound 121] | 5 μM (Those that provide >10% inhibition of TRPM7 channel activity in the HEK293 cell system were labeled with the concentration tested (generally 5 uM)) | 0.053 | 0.036 | 1.4 | – | – | – |
| COc1cc2c(cc1OC)C(c1sc3cc(OC)c(OC)cc3c1Cl)=NCC2 [Compound 120] | 5 μM (Those that provide >10% inhibition of TRPM7 channel activity in the HEK293 cell system were labeled with the concentration tested (generally 5 uM)) | 0.079 | 0.066 | 2.55 | – | – | – |
| Cc1c(Cc2ccccc2)c(=O)oc2cc(O)cc(O)c12 [STOCK1N- 70089 #1, reference compound] | – | – | – | – | 0.181 | 0.005 | 3.16 |
| Cc1c(Cc2cccc(Cl)c2)c(=O)oc2cc(O)cc(O)c12 [Compound 77] | – | 0.071 | 0.003 | 1.99 | – | – | – |
| CCCc1c(Cc2ccc(Cl)c(Cl)c2)c(=O)[nH]c2cc(OC)cc(OC)c12 [Compound 132] | – | 0.73 | 0.1 | 4.46 | – | – | – |
| CC1c2ccsc2CCN1C(=O)c1c(Cl)c2ccccc2n1C (stereo not drawn) [T6857127 #7, reference compound] | – | – | – | – | 0 | 0 | 0.8 |
| COc1ccc2sc(C3=NCCc4cc(OC)c(OC)cc43)c(Cl)c2c1 [Compound 70] | – | 0.035 | 0.013 | 0.47 | – | – | – |
| COc1cc2c(cc1OC)C(c1sc3cc(OC)c(OC)cc3c1Cl)NCC2 (stereo not drawn) [Compound 126] | – | 0.012 | 0.059 | 1.03 | – | – | – |
| Cc1ccc(N(Cc2ccccn2)C(=O)c2sc3ccccc3c2Cl)c(C)c1 [Compound 57] | – | 0.110 | 0.039 | 1.71 | – | – | – |
| COc1ccc2c(Cl)c(C3NCCc4cc(OC)c(OC)cc43)sc2c1 (stereo not drawn) [Compound 71] | – | 0.005 | 0.003 | 0.42 | – | – | – |
| Cc1c(Cc2ccc(F)cc2)c(=O)oc2cc(O)ccc12 [RJF01910SC #10, reference compound] | – | – | – | – | 0.465 | 0.261 | 4.15 |
| Cc1c(Cc2ccccc2)c(=O)oc2c(CN(C)C)c(O)ccc12 [STOCK1N- 36829 #3, reference compound] | – | – | – | – | 0.262 | 0.102 | 4.72 |
| CCCc1c(Cc2ccc(Cl)c(Cl)c2)c(=O)[nH]c2cc(O)cc(O)c12 [Compound 136] | – | 0.534 | 0.238 | 18.4 | – | – | – |
| Clc1cccc2c1CCNC2c1sc2ccccc2c1Cl (stereo not drawn) [Compound 125] | – | 0.363 | 0.122 | 4.69 | – | – | – |
| COc1cc2c(cc1OC)C(c1sc3cccc(C)c3c1Cl)NCC2 (stereo not drawn) [Compound 73] | – | 0.000 | 0.000 | 0.18 | – | – | – |
| Cc1ccc2c(c1)CCCN2C(=O)c1sc2ccccc2c1Cl [Compound 2] | – | 0.179 | 0.018 | 3.27 | – | – | – |
| COc1cc(OC)c2c(C)c(Cc3ccc(Cl)cc3)c(=O)[nH]c2c1 [Compound 93] | – | 0.071 | 0.041 | 0.21 | – | – | – |
| COc1cccc2c1CCN=C2c1sc2ccccc2c1Cl [Compound 110] | – | 0.037 | 0.06 | 1.38 | – | – | – |
| Cc1ccc(N(Cc2cccnc2)C(=O)c2sc3ccccc3c2Cl)c(C)c1 [Compound 106] | – | 0 | 0.054 | 1.2 | – | – | – |
| COc1cc(OC)c2c(C)c(Cc3ccc(Cl)c(Cl)c3)c(=O)[nH]c2c1 [Compound 130] | – | 0.1 | 0.06 | 0.93 | – | – | – |
| Cc1ccc(N(Cc2ccc3ccccc3n2)C(=O)c2sc3ccccc3c2Cl)c(C)c1 [Compound 104] | – | 0.307 | 0.094 | 0.98 | – | – | – |
| CCN1CCc2cc(OC)c(OC)cc2C1c1sc2ccccc2c1Cl (stereo not drawn) [Compound 129] | – | 0.05 | 0.07 | 2.23 | – | – | – |
| COc1cc2c(cc1OC)C(c1sc3cc(C(F)(F)F)ccc3c1Cl)NCC2 (stereo not drawn) [Compound 72] | – | 0.000 | 0.000 | 0.39 | – | – | – |
